Source: ChEMBL document CHEMBL3407450, “Design of new hybrid template by linking quinoline, triazole and dihydroquinoline pharmacophoric groups: A greener approach to novel polyazaheterocycles as cytotoxic agents” (Bioorg Med Chem Lett, 2015)

Tests used:
HepG2 = test: Cytotoxicity against human HepG2 cells assessed as cell viability after 48 hrs by MTT assay; assay type: functional, cell-based; settings: HepG2, 48 h
A549 = test: Cytotoxicity against human A549 cells assessed as cell viability after 48 hrs by MTT assay; assay type: functional, cell-based; settings: A549, 48 h
[1] = biological target: 3',5'-cyclic-AMP phosphodiesterase 4D (Homo sapiens) (UniProt Q08499); test: Inhibition of PDE4D (unknown origin) transfected into Sf9 cells at 30 uM by PDElight HTS cAMP phosphodiesterase assay
MCF7 = test: Cytotoxicity against human MCF7 cells assessed as cell viability after 48 hrs by MTT assay; assay type: functional, cell-based; settings: MCF7, 48 h
[2] = biological target: 3',5'-cyclic-AMP phosphodiesterase 4B (Homo sapiens) (UniProt Q07343); test: Inhibition of PDE4B (unknown origin) transfected into Sf9 cells at 30 uM by PDElight HTS cAMP phosphodiesterase assay
DU-145 = test: Cytotoxicity against human DU145 cells assessed as cell viability after 48 hrs by MTT assay; assay type: functional, cell-based; settings: DU-145, 48 h

Chain of 3',5'-cyclic-AMP phosphodiesterase 4B (Homo sapiens) (Q07343 whole entry): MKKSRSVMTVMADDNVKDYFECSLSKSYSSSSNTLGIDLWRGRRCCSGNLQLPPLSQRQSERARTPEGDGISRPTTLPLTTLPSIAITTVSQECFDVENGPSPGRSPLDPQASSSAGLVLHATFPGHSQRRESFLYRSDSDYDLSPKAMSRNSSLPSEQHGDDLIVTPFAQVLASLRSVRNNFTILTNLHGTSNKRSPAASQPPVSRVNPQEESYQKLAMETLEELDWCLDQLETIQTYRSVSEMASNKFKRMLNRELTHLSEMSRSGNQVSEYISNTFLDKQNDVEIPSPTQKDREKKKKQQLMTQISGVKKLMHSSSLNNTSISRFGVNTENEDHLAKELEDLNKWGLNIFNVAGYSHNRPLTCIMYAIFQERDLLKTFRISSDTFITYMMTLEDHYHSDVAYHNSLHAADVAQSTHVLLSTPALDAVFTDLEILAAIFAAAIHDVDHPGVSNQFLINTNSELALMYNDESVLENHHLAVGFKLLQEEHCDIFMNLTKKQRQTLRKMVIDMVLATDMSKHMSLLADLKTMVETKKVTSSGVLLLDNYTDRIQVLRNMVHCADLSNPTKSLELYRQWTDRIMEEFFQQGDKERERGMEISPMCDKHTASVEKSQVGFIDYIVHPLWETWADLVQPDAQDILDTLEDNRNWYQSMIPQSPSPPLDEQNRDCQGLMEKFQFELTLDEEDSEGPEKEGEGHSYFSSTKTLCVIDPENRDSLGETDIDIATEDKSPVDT
Chain of 3',5'-cyclic-AMP phosphodiesterase 4D (Homo sapiens) (Q08499 whole entry): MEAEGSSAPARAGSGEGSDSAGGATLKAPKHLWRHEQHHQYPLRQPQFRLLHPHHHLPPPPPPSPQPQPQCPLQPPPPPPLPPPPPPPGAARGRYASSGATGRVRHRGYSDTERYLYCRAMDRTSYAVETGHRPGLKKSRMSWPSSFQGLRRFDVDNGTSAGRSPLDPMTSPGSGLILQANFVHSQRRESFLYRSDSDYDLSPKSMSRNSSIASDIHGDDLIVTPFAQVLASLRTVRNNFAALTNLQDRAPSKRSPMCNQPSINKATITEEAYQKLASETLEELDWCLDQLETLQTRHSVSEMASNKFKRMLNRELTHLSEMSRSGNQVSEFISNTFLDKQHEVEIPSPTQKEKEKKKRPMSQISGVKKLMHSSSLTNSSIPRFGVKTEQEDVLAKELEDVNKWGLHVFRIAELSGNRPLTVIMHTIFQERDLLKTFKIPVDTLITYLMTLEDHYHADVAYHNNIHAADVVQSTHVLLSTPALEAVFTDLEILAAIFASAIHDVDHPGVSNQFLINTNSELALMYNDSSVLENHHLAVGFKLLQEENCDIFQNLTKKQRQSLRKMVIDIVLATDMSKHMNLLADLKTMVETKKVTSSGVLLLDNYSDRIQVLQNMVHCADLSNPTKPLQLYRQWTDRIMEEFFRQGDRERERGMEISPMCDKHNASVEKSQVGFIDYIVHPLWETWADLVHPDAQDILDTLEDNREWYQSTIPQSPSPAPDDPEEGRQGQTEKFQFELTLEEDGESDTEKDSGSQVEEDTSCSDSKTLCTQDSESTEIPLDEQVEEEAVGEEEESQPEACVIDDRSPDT

Row | Compound | IC50 (HepG2) | IC50 (A549) | inhibition [1] | IC50 (MCF7) | inhibition [2] | IC50 (DU-145)
1 | COc1ccc2nc(Cl)c(Cn3cc(CN4c5ccc(C)cc5C(C)=CC4(C)C)nn3)cc2c1 | 21.6 µM | 15.5 µM | 52% | 14.3 µM | 88% | 19.8 µM
2 | CC1=CC(C)(C)N(Cc2cn(Cc3cc4ccc(C)cc4nc3Cl)nn2)c2ccccc21 | 26.2 µM | 11.1 µM |  | 10.8 µM |  | 27 µM
3 | CC1=CC(C)(C)N(Cc2cn(Cc3cc4cc(C)ccc4nc3Cl)nn2)c2ccccc21 | 23 µM | 29.4 µM |  | 30.6 µM |  | 31.3 µM
4 | COc1ccc2nc(Cl)c(Cn3cc(CN4c5ccccc5C(C)=CC4(C)C)nn3)cc2c1 | 41.2 µM | 33.4 µM |  | 38.7 µM |  | 34 µM
5 | CC1=CC(C)(C)N(Cc2cn(Cc3cc4ccccc4nc3Cl)nn2)c2ccccc21 | 13.1 µM | 17.5 µM |  | 16.2 µM |  | 19.3 µM
6 | COc1ccc2c(c1)C(C)=CC(C)(C)N2Cc1cn(Cc2cc3cc(OC)ccc3nc2Cl)nn1 | 27.2 µM | 30.9 µM |  | 26.4 µM |  | 28.6 µM
7 | COc1cccc2c1C(=O)c1c(O)c3c(c(O)c1C2=O)C[C@@](O)(C(=O)CO)C[C@@H]3O[C@H]1C[C@H](N)[C@H](O)[C@H](C)O1 [DOXORUBICIN] | 3.5 µM | 9.7 µM |  | 0.8 µM |  | 0.5 µM
